Measured values taken from PubChem BioAssay (NCI).
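Five compound concentrations were applied to cells in 96-well plates for 48 hours; endpoints were derived by simple linear interpolation of the resulting dose-response curve. The concentration for 50% growth inhibition is given as GI50. TGI: concentration producing complete growth inhibition.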 Where a SMILES comes first, the peptide text is derived from it.

Experiments:
Assay in all cases: inhibition of tumour cell growth, NCI panel, 48 h
ACHN renal = test system: ACHN renal
CCRF-CEM leukemia = test system: CCRF-CEM leukemia
HCT-15 colon = test system: HCT-15 colon
K-562 leukemia = test system: K-562 leukemia
LOX IMVI melanoma = test system: LOX IMVI melanoma
SF-268 CNS = test system: SF-268 CNS
SK-MEL-28 melanoma = test system: SK-MEL-28 melanoma
SW-620 colon = test system: SW-620 colon
U251 CNS = test system: U251 CNS
UACC-257 melanoma = test system: UACC-257 melanoma

SMILES | TGI (ACHN renal) [µM] | TGI (CCRF-CEM leukemia) [µM] | TGI (HCT-15 colon) [µM] | TGI (K-562 leukemia) [µM] | TGI (LOX IMVI melanoma) [µM] | TGI (SF-268 CNS) [µM] | TGI (SK-MEL-28 melanoma) [µM] | TGI (SW-620 colon) [µM] | TGI (U251 CNS) [µM] | TGI (UACC-257 melanoma) [µM] | GI50 (ACHN renal) [µM] | GI50 (CCRF-CEM leukemia) [µM] | GI50 (HCT-15 colon) [µM] | GI50 (K-562 leukemia) [µM] | GI50 (LOX IMVI melanoma) [µM] | GI50 (SF-268 CNS) [µM] | GI50 (SK-MEL-28 melanoma) [µM] | GI50 (SW-620 colon) [µM] | GI50 (U251 CNS) [µM] | GI50 (UACC-257 melanoma) [µM]
O=S(=O)(O)c1cc(N=[N+]([O-])c2cc(S(=O)(=O)O)c3ccccc3c2)cc2ccccc12 | > 100 | > 100 | > 100 | > 100 | 60.6 | > 100 | > 100 | > 100 | > 100 | > 100 | – | – | – | – | – | – | – | – | – | –
Cc1ccccc1NC(=O)CC(=O)N1N=C(N2c3ccccc3Sc3ccccc32)CC1c1ccccc1 (configuration not stated) | > 100 | – | > 100 | – | > 100 | > 100 | > 100 | > 100 | > 100 | > 100 | – | – | – | – | – | – | – | – | – | –
Nc1cc(-c2ccc(Cl)cc2)nn1-c1nc2ccccc2nc1-c1ccccc1 | > 100 | > 100 | > 100 | > 100 | > 100 | > 100 | > 100 | > 100 | > 100 | > 100 | – | – | – | – | – | – | – | – | – | –
COc1cc2c(cc1OCCCCCCCCN1C(=O)c3cccc4cccc(c34)C1=O)N=C[C@@H]1CCCN1C2=O | > 100 | 7.28 | 32.7 | 23.1 | 25.5 | 58.5 | 37.9 | > 100 | 25.3 | 68.8 | – | – | – | – | – | – | – | – | – | –
N#Cc1c(N)nc2c(c1-c1ccc(Br)cc1)CSc1ccccc1-2 | – | 92 | > 100 | > 100 | > 100 | > 100 | > 100 | > 100 | > 100 | 72.5 | – | – | – | – | – | – | – | – | – | –
CCC(C)C(NC(=O)C1CCCN1C(=O)C(CC(C)C)NC(=O)C(CC(C)C)NC(=O)C(N)CC(C)C)C(=O)NC(C(=O)NCC(=O)NC(CC(N)=O)C(=O)NC(CC(C)C)C(=O)NC(CC(C)C)C(=O)NC(CC(C)C)C(N)=O)C(C)C (configuration not stated) (H-LLLPIVGNLLL-NH2; configuration not given here) | > 50 | > 50 | > 50 | – | > 50 | > 50 | > 50 | > 50 | > 50 | > 50 | – | – | – | – | – | – | – | – | – | –
O=C1CC2(CCC(O)(c3cccs3)C(C(=O)c3cccs3)C2)C(=O)c2ccccc2N1 (configuration not stated) | – | > 100 | > 100 | > 100 | > 100 | > 100 | – | > 100 | > 100 | > 100 | – | – | – | – | – | – | – | – | – | –
C1=CC(=[N+]2N=C(c3ccccc3)CC2c2ccccc2)C=CC1=C1SC(c2ccccc2)(c2ccccc2)c2ccccc21 (configuration not stated) | > 100 | > 100 | > 100 | > 100 | – | > 100 | > 100 | > 100 | > 100 | – | – | – | – | – | – | – | – | – | – | –
Cc1cc(=O)[nH]c(/N=C(\N)Nc2ccc(Cl)cc2)n1 | > 100 | > 100 | > 100 | > 100 | > 100 | > 100 | > 100 | > 100 | > 100 | > 100 | – | – | – | – | – | – | – | – | – | –
C/C(N=Nc1nc2ccccc2[nH]1)=C1/C=CC=CN1O | > 100 | > 100 | > 100 | > 100 | > 100 | > 100 | > 100 | > 100 | > 100 | > 100 | – | – | – | – | – | – | – | – | – | –
CCCCCOC(=O)c1cc2cc(CCl)ccc2oc1=O | 8.42 | > 81.1 | 35.4 | > 49.4 | 34.5 | 41.9 | 60.2 | 56.6 | 34.9 | 5.96 | – | – | – | – | – | – | – | – | – | –
O=C1c2ccccc2C(C2c3ccccc3C(=O)c3cc(Br)ccc32)c2ccc(Br)cc21 (configuration not stated) | > 100 | – | > 100 | > 100 | > 100 | > 100 | > 100 | > 100 | > 100 | > 100 | – | – | – | – | – | – | – | – | – | –
COC(CN(C=O)[C@@H](c1ccc(Cl)cc1)c1cc2ccccc2o1)OC | 41.7 | 44 | 32.8 | 53.6 | 34.5 | 30.9 | 34.5 | 31.4 | 31.8 | 28 | – | – | – | – | – | – | – | – | – | –
NC(=S)N1N=C(c2ccccc2O)CC1c1ccccc1 (configuration not stated) | 61.8 | > 100 | 39 | > 100 | 46.2 | 80.6 | 58.5 | > 100 | 43.8 | 39.1 | – | – | – | – | – | – | – | – | – | –
Nc1ccc(-c2nc3cc(F)ccc3s2)cc1CO | > 100 | > 100 | > 100 | > 100 | > 100 | 68.8 | > 100 | > 100 | 41.5 | > 100 | – | – | – | – | – | – | – | – | – | –
CC(=O)c1ccc2c(c1)N(CCCN1CCN(CCO)CC1)c1ccccc1C2 | 34.8 | 28.2 | 28.8 | 30.1 | 29.6 | 33.2 | 23.8 | 31.3 | 29.8 | 18.9 | – | – | – | – | – | – | – | – | – | –
CCCSc1ccc2[nH]c(N3C(=O)/C(=C/c4cc(OC)c(OC)c(OC)c4)N=C3c3ccccc3)cc2c1 | > 37.5 | > 32.9 | > 37.5 | > 35.3 | > 37.5 | > 37.5 | > 37.5 | > 37.5 | > 37.5 | > 37.5 | – | – | – | – | – | – | – | – | – | –
CSCCC(NC(=O)OCc1ccccc1)P(=O)(O)c1ccccc1 (configuration not stated) | > 100 | > 100 | > 100 | > 100 | > 100 | – | > 100 | > 100 | > 100 | > 100 | – | – | – | – | – | – | – | – | – | –
Nc1ccc(Oc2ccc(C34CC5CC(C3)CC(c3ccc(Oc6ccc(N)cc6)cc3)(C5)C4)cc2)cc1 | > 51.4 | > 100 | > 63.9 | > 100 | 20.1 | > 51.7 | > 72.1 | > 100 | 21.6 | 40.9 | – | – | – | – | – | – | – | – | – | –
O=C(O)C(O)C(O)C(O)C(=O)CO (configuration not stated) | > 100 | > 100 | > 100 | > 100 | > 100 | > 100 | > 100 | > 100 | > 100 | > 100 | – | – | – | – | – | – | – | – | – | –
CC(C)(C)[Si](C)(C)OCC1OC(n2cnc3c(N)ncnc32)CC1OS(C)(=O)=O (configuration not stated) | – | > 100 | > 100 | > 100 | > 100 | – | > 100 | > 100 | > 100 | > 100 | – | – | – | – | – | – | – | – | – | –
CCCN1C(=O)CSC1=Nc1ccc2cc3ccc(N=C4SCC(=O)N4CCC)cc3nc2c1 | > 100 | > 100 | > 100 | > 100 | > 100 | > 100 | > 100 | > 100 | > 100 | > 100 | 29.6 | > 100 | > 100 | 52.2 | > 100 | 35.5 | > 100 | > 100 | 48.2 | > 100
COc1ccc(C2c3cc4c(cc3OC(O)(CO)C2C(=O)O)OCO4)cc1 (configuration not stated) (tested in a mixture with another compound) | – | 55.5 | 35.6 | 40.2 | 30.1 | 94.3 | 43.8 | 37.6 | 36.5 | 50.8 | – | – | – | – | – | – | – | – | – | –
Cc1cnoc1NS(=O)(=O)c1ccc(Nc2nnc(/C=C/c3c(O)ccc4ccccc34)c(=O)n2N)cc1 | 55.1 | > 100 | 61.5 | 82.9 | 53.9 | > 100 | – | > 100 | – | – | – | – | – | – | – | – | – | – | – | –
CC(C)C1OC(=O)/C=C/C=C/C=C/C=C/C=C/CC(O)C(C)C(O)CC(O)CC(O)CC(O)CC(O)CC(O)CC(O)/C=C/C1C (configuration not stated) | > 100 | > 100 | > 100 | > 100 | – | > 100 | > 100 | > 100 | > 100 | > 100 | – | 5.11 | – | – | – | – | – | – | – | –
COC(=S)OC1CC(n2cnc3c(N)ncnc32)OC1CO[Si](C)(C)C(C)(C)C (configuration not stated) | – | 75.9 | 49.8 | > 100 | > 100 | – | 96.7 | > 100 | 28.1 | 72.8 | – | – | – | – | – | – | – | – | – | –
COc1cc2c(cc1C)NC(=O)/C2=C/c1c(Cl)n(-c2ccccc2)c2ccccc12 | > 100 | 30.8 | 67.3 | > 100 | 27.8 | > 100 | > 100 | 38.7 | 64.3 | 61.7 | – | – | – | – | – | – | – | – | – | –
CCOC(=O)C(=O)NCCCN1CCOCC1 | > 100 | > 100 | > 100 | > 100 | > 100 | > 100 | > 100 | > 100 | > 100 | > 100 | – | – | – | – | – | – | – | – | – | –
